What was measured:
KB = assay: EC17 dose response, co-culture with E2-CAR-T cells, LDH specific lysis; format: cell-based, human; settings: E/T 1:1, 24 h co-culture
From the text: (§1) To investigate EC17 CAM action in vitro, pure EGFRt-sorted CD4 and CD8 CAR-T cells were admixed in a 1:1 ratio and matching mock-transduced T cells were included per experimental design. Other than FR+/- isogenic pairs of AML and osteosarcoma cell lines, we added KB, MDA-MB-231 and OV90 to represent different histological tumor types and FR expression levels. All FR+ target cell lines were subjected to a direct ^3H-FA binding assay to quantitate the number of FR molecules bound/cell ([38]). Prior to co-culture experiments, cryopreserved CAR-T cells were allowed to recover for 2–3 days in T cell culture medium. All effector and target cells were pre-washed with FFRPMI to remove any exogenous FA that could compete against EC17. Short-term co-culture studies of ≤ 3 days were carried out in FFRPMI without adding any exogenous cytokines.
(§2) For an EC17 dose response study, FR+ cancer cell lines (KB, MDA-MB-231, HOS-FRα, THP1-FRβ, OV90) were co-cultured with EGFRt-sorted E2-CAR-T cells at an effector-to-target (E/T) ratio of 1:1 in the presence of EC17 ranging from 0.1 pM to 100 μM in 10-fold increments. After 24 h of co-culture, supernatants were harvested to determine target cell killing by Promega's CytoTox 96® LDH assay kit and expressed as specific lysis (%) normalized to basal levels in the absence of EC17. To study the kinetics of T cell activation and FR correlation in vitro, co-cultures were carried out in FR+/- cell lines at varying E/T ratios (1:27, 1:9, 1:3, 1:1, 3:1) in the continuous presence of 10 nM EC17. The kinetics of target cell killing (i.e., % specific lysis) were quantified after 16 and 48 h of co-culture and normalized to basal levels in the absence of EC17 at defined E/T ratios. Meanwhile, a portion of the supernatants was taken after 44 h of co-culture for measurement of IFNγ, IL-2, and TNFα. The LEGENDplex™ human Th1 cytokine panel (BioLegend, San Diego, CA) was used to determine CAR-T cell derived cytokines.

THP1-FRβ = assay: as above; format: cell-based, human
From the text: as §1, §2

MDA-MB-231 tumors = assay: Effect of dietary folate on CRS and antitumor activity; format: in vivo, NSG mice
Method: All animal care and use were performed according to NIH guidelines and in compliance with protocols approved by the Purdue University Animal Use and Care Committee. Female 4 to 5-weeks-old NOD/SCID gamma (NSG™) mice (stock number: 005557) were purchased from The Jackson Laboratory (Bar Harbor, ME). Unless specifically indicated, all animals were maintained on a FA-deficient diet (TestDiet, St. Louis, MO) upon arrival and throughout the study. To establish subcutaneous xenografts, MDA-MB-231 and HOS-FRα were implanted in the right flank region at 2.5 × 10^6 and 1 × 10^6 cells per animal, respectively. For intravenous xenografts, THP1-FRβ cells were inoculated at 5 × 10^6 cells per animal. Subcutaneous tumors were measured 2–3 times per week with a caliper and calculated using the ellipsoidal formula (length x width^2)/2. […] All animal doses (CAR-T cells, EC17, sodium fluorescein) were given intravenously.
For MDA-MB-231 studies, mice received a high dose (~10 million) of a “clinical facsimile” of E2-CAR-T cells (~39% EGFRt+) with a low differentiation profile. Two days later, we started them with 3 different treatment regimens of EC17 at an average tumor size of ~293 ± 39 mm^3. The EC17 dosing was given once-a-week (SIW) at 500 nmol/kg on Mondays, or as escalating doses of 5, 50, or 100, and 500 or 1,000 nmol/kg on Monday, Thursday, and Monday with a 6 day break in-between cycles. Control mice were left untreated (received CAR-T cells but no EC17). For comparison, a cohort of tumor-free littermates also received the same number of CAR-T cells without or with EC17 SIW at 500 nmol/kg. To study the effect of high dietary folate, two sets of NSG mice were placed on either a FA-replete diet (4 mg/kg, Envigo, Indianapolis, IN) or a FA-deficient diet (TestDiet, St. Louis, MO) upon arrival. On day 0, both sets of the mice received ~10 million of the same “clinical facsimile” CAR-T cells followed by no EC17 or EC17 SIW at 500 nmol/kg starting on day 3. On the first day of EC17 administration, MDA-MB-231 tumors size averaged around ~549 ± 184 mm^3 (280–918 mm^3) in FA-replete mice, and ~559 ± 165 mm^3 (356–961 mm^3) in FA-deficient mice.
Depending on the CAR-T cell dose and how EC17 is administered, tumor-bearing mice receiving FITC-specific CAR-T cells can experience severe CRS and varying degrees of body weight loss ([27], [33], [34]). Therefore, we developed a CRS grading system (0–5 scale) to empirically assess CRS toxicity from animals' gross morphology and social behavior to allow for better timing of CRS rescue. While grades 0 and 5 indicated normal (no CRS) or death (due to severe CRS), respectively, grades 1, 2, and 3–4 were considered mild, light-to-moderate, and severe CRS. In addition, all EC17 doses were intentionally given toward the end of any given day to allow potential CRS symptoms to develop overnight. On the days immediately following each EC17 dose, animals were scored and rescue agents such as sodium fluorescein, folic acid and leucovorin were used to mitigate CRS toxicity ([33]). In this particular instance, a batch of E2-CAR-T cells with a high EGFRt+ CD4/CD8 ratio (~93:7) was given to HOS-FRα tumor-bearing mice at a mixture of ~2.5 million CD8 and ~33 million CD4 on day 0. When EC17 was dosed, respectively, at 500, 100, and 500 nmol/kg on days 3, 10, and 12, low CRS (grades 1–2) was noted on days 4 and 11 but high CRS (grade 3) was noted on day 13. To mitigate the severe CRS toxicity, sodium fluorescein was intravenously administrated at ~96 mg/kg in the morning of day 13 and mouse plasma samples were collected 6 h later for analysis of CRS-associated cytokines.

[1] = FA-deficient diet, ~10 million E2-CAR-T cells, subsequent EC17 doses SIW 500 nmol/kg
[2] = FA-replete diet, EC17 SIW 500 nmol/kg, ~10 million E2-CAR-T cells, n = 5

## Nc1nc2ncc(CNc3ccc(C(=O)NC(CCC(=O)NCCNC(=S)Nc4ccc(-c5c6ccc(=O)cc-6oc6cc(O)ccc56)c(C(=O)O)c4)C(=O)O)cc3)nc2c(=O)[nH]1 (stereo not shown) [EC17, FA-(γ)-ethylenediamine-FITC]
KB
  Max. lysis: 11%
KB; Homo sapiens, curve fitted up to 100 nM
  EC50: 0.0053 nM
THP1-FRβ; E/T 1:1, 24 h co-culture
  Max. lysis: 27%
THP1-FRβ; Homo sapiens, EC17, E/T 1:1, 24 h co-culture, curve fitted up to 100 nM
  EC50: 0.015 nM
MDA-MB-231 tumors; FA-deficient diet, EC17 SIW 500 nmol/kg, ~10 million E2-CAR-T cells, n = 5
  cures: 5/5
MDA-MB-231 tumors; FA-deficient diet, day 52, EC17 SIW 500 nmol/kg
  CD3ε+ EGFRt+ CAR-T cells in blood: 1.6–20.4 × 10^4 per 100 μL blood
MDA-MB-231 tumors; [1]
  CRS grade: 2–3
  body weight loss: ≤ 11.4%
MDA-MB-231 tumors; [2]
  complete responses: 2/5
  cures: 2/5
  partial response: 1/5
MDA-MB-231 tumors; FA-replete diet, day 59, EC17 SIW 500 nmol/kg
  CD3ε+ EGFRt+ CAR-T cells in blood: 0.027–4.3 × 10^3 per 100 μL blood
MDA-MB-231 tumors; FA-replete diet, ~10 million E2-CAR-T cells, EC17 SIW 500 nmol/kg
  CRS symptoms: did not show symptoms of CRS
